Reference: patent publication US20240293367A1, “METHODS OF TREATING DISORDERS WITH A […]” (Cybin IRL Limited, priority 2023, published 2024)
Like-named read-outs stand apart in the source and are kept apart here.

Test: Phase I/IIa clinical PK of oral psilocin-d10, plasma, noncompartmental analysis (Cohorts 1-6)
Assay type: in vivo, human
Conditions: for AUC(0-t) / AUC(0-inf) / Cmax / half-life / Vd/F / Tmax: human, plasma; for AUC(0-t) / AUC(0-inf) / Cmax / half-life / Vd/F: po; for AUC(0-inf): read-out: AUC0-inf Mean (SD); for half-life: read-out: T1/2 Mean (SD) (converted); for Vd/F: read-out: Vz/F Mean (SD); for Tmax: read-out: Tmax Median
Procedure: Phase I/IIa, Randomized, Double-Blind, Placebo-Controlled Study which assesses the safety, tolerability, pharmacokinetics, and pharmacodynamics of multiple ascending oral doses of psilocin-d10 in participants with and without MDD (ClinicalTrials.gov Identifier: NCT05385783). All subjects receiving study medication in Cohorts 1-6 received oral psilocin-d10 powder in solution (0.1M citric acid+Tang orange drink, 30 mL dose in a dose cup) and subjects receiving placebo received a similar volume of Tang orange drink without the psilocin-d10 study drug. All subjects receiving study medication in the relative bioavailability (BA) cohort received powder-filled capsules containing psilocin-d10 benzenesulfonate salt by ingestion with approximately 240 mL room temperature water, or oral psilocin-d10 powder in solution (0.1M citric acid+Tang orange drink, 30 mL dose in a dose cup) in a cross-over design. Psilocin-d10 for the powder in solution dosage form was manufactured by Patheon Pharma Services, with an isotopic purity of 79.89%. Psilocin-d10 benzenesulfonate salt for the powder-filled capsule dosage form was manufactured by Patheon Pharma Services, with an isotopic purity of 85.20%.
Cohorts 1, 4, 5, and 6 of the study was comprised of participants with MDD. Cohorts 2, 3, and the relative BA cohort of the study were comprised of normal healthy volunteers (NHV). […] MDD participants had been on a stable dose of antidepressant medication for at least one month prior to screening with an inadequate response to that antidepressant medication as judged by the Investigator, and continued to receive their prescribed antidepressant throughout the course of the study.
Cohort 1. For Cohort 1, 2 sentinel subjects were randomized and dosed, including 1 subject who received a psilocin-d10 1 mg oral dose and 1 subject who received a placebo dose. After the sentinel subjects were dosed, an additional 2 subjects were dosed, including a replacement subject for one of the sentinel subjects who withdrew consent and one additional subject. In total, four Cohort 1 subjects received a first dose of study medication on Day 1, and 3 subjects received a second dose of study medication on Day 22. For the first dose, 2 subjects received an active psilocin-d10 1 mg dose and 2 subjects received placebo. For the second dose, 3 subjects received an active psilocin-d10 1 mg dose.
Cohort 2. For Cohort 2, 4 subjects were randomized and dosed on Day 1 (2 subjects on one day, 2 subjects on the next day), including 3 subjects who received a psilocin-d10 3 mg oral dose and 1 subject who received a placebo dose. These same 4 subjects were again dosed on Day 8 (2 subjects on one day, 2 subjects on the next day), with all 4 subjects receiving a psilocin-d10 8 mg oral dose (note the actual washout was 11 days between doses).
Cohort 3. For Cohort 3 Day 1, 4 subjects were randomized and dosed on Day 1 (2 subjects on one day, 2 subjects on the next day), including 3 subjects who received a psilocin-do 8 mg oral dose and 1 subject who received a placebo dose. […] Another subject was dosed and left the study after the 2-hour PK sampling and has limited PK samples available for analysis from 0 to 2 hours—this subject's PK data has thus been excluded from the analysis presented hereinafter. For Cohort 3 Day 8, 3 subjects were dosed on Day 8 with a psilocin-d10 10 mg dose (2 sentinel subjects were dosed on one day, 1 non-sentinel subject was dosed on the next day).
Cohorts 4 and 5. For Cohorts 4 and 5, 12 participants each (24 participants total) were randomized in a 3:1 ratio to receive 12 mg of psilocin-d10 or matched placebo in a single dosing session on Day 1. Following a 21-day interval, all participants received a dose of 12 mg psilocin-d10 on Day 22 (second dose for participants originally randomized to psilocin-d10, first dose for participants randomized to placebo), and were followed to Day 42.
Cohort 6. […]

[1] = 8 mg, 8 mg oral, Cohorts 2 and 3 NHV, pooled
[2] = 10 mg, 10 mg oral, Cohort 3 NHV, Day 8
[3] = 12 mg, 12 mg oral, Cohort 4 MDD, Day 1 and Day 22
[4] = 12 mg, 12 mg oral, Cohort 5 MDD, Day 1 and Day 22
[5] = 12 mg, 12 mg oral, Cohorts 4 and 5 MDD, Day 1 and Day 22
[6] = 16 mg, 16 mg oral, Cohort 6 MDD, all subjects incl. 3 with emesis

`[2H]C([2H])([2H])N(C([2H])([2H])[2H])C([2H])([2H])C([2H])([2H])c1c[nH]c2cccc(O)c12` [psilocin-d10, 3-(2-(bis(methyl-d3)amino)ethyl-1,1,2,2-d4)-1H-indol-4-ol] showed an AUC(0-t) (8 mg, 8 mg oral, Cohorts 2 and 3 NHV, pooled, 2 subjects excluded, read-out: AUC0-24 Mean (SD)) of 84 ng·h/mL, an AUC(0-inf) [1] of 87.8 ng·h/mL and an AUC(0-t) (8 mg, 8 mg oral, Cohorts 2 and 3 NHV, pooled, read-out: AUClast Mean (SD)) of 84 ng·h/mL. The Cmax (8 mg, 8 mg oral, Cohorts 2 and 3 NHV, pooled, read-out: Cmax Median) was 17.1 ng/mL, the half-life [1] was 5.51 h and the Vd/F [1] was 744 L. It also gave an AUC(0-t) (10 mg, 10 mg oral, Cohort 3 NHV, Day 8, read-out: AUC0-24 Mean (SD)) of 101 ng·h/mL, an AUC(0-inf) [2] of 106 ng·h/mL and an AUC(0-t) (10 mg, 10 mg oral, Cohort 3 NHV, Day 8, read-out: AUClast Mean (SD)) of 101 ng·h/mL. It also gave a Cmax (10 mg, 10 mg oral, Cohort 3 NHV, Day 8, read-out: Cmax Mean (SD)) of 13.4 ng/mL, a Cmax (10 mg, 10 mg oral, Cohort 3 NHV, Day 8, read-out: Cmax Median) of 10.9 ng/mL and a half-life [2] of 5.12 h. The Vd/F [2] was 758 L, the AUC(0-t) (12 mg, 12 mg oral, Cohort 4 MDD, Day 1 and Day 22, read-out: AUC0-24 Mean (SD)) was 155 ng·h/mL and the AUC(0-inf) [3] was 165 ng·h/mL. For the same compound, the AUC(0-t) (12 mg, 12 mg oral, Cohort 4 MDD, Day 1 and Day 22, read-out: AUClast Mean (SD)) was 154 ng·h/mL, the Cmax (12 mg, 12 mg oral, Cohort 4 MDD, Day 1 and Day 22, read-out: Cmax Mean (SD)) was 19.7 ng/mL and the Cmax (12 mg, 12 mg oral, Cohort 4 MDD, Day 1 and Day 22, read-out: Cmax Median) was 18.6 ng/mL. The half-life [3] was 5.62 h, the Vd/F [3] was 668 L and the AUC(0-t) (12 mg, 12 mg oral, Cohort 5 MDD, Day 1 and Day 22, read-out: AUC0-24 Mean (SD)) was 137 ng·h/mL. The AUC(0-inf) [4] was 144 ng·h/mL, the AUC(0-t) (12 mg, 12 mg oral, Cohort 5 MDD, Day 1 and Day 22, read-out: AUClast Mean (SD)) was 137 ng·h/mL and the Cmax (12 mg, 12 mg oral, Cohort 5 MDD, Day 1 and Day 22, read-out: Cmax Mean (SD)) was 16.9 ng/mL. It also gave a Cmax (12 mg, 12 mg oral, Cohort 5 MDD, Day 1 and Day 22, read-out: Cmax Median) of 14.8 ng/mL, a half-life [4] of 5.08 h and a Vd/F [4] of 666 L. The AUC(0-t) (12 mg, 12 mg oral, Cohorts 4 and 5 MDD, Day 1 and Day 22, read-out: AUC0-24 Mean (SD)) was 146 ng·h/mL, the AUC(0-inf) [5] was 155 ng·h/mL and the AUC(0-t) (12 mg, 12 mg oral, Cohorts 4 and 5 MDD, Day 1 and Day 22, read-out: AUClast Mean (SD)) was 145 ng·h/mL. It also gave a Cmax (12 mg, 12 mg oral, Cohorts 4 and 5 MDD, Day 1 and Day 22, read-out: Cmax Mean (SD)) of 18.2 ng/mL, a Cmax (12 mg, 12 mg oral, Cohorts 4 and 5 MDD, Day 1 and Day 22, read-out: Cmax Median) of 16.2 ng/mL and a half-life [5] of 5.35 h. For the same compound, the Vd/F [5] was about 667 L, the Cmax (16 mg, 16 mg oral, Cohort 6 MDD, Day 1 and Day 22, all subjects incl. 3 with emesis, read-out: Cmax Mean (SD)) was 19.8 ng/mL and the AUC(0-t) (16 mg, 16 mg oral, Cohort 6 MDD, all subjects incl. 3 with emesis, read-out: AUC0-24 Mean (SD)) was 155 ng·h/mL. It also gave an AUC(0-inf) [6] of 161 ng·h/mL, an AUC(0-t) (16 mg, 16 mg oral, Cohort 6 MDD, all subjects incl. 3 with emesis, read-out: AUClast Mean (SD)) of 151 ng·h/mL and a Cmax (16 mg, 16 mg oral, Cohort 6 MDD, all subjects incl. 3 with emesis, read-out: Cmax Median) of 17.4 ng/mL. For the same compound, the half-life [6] was 5.57 h, the Vd/F [6] was 986 L and the Tmax (1 mg oral, Cohort 1 MDD, Day 1 and Day 22 pooled) was 1 h. For the same compound, the Tmax (3 mg oral, Cohort 2 NHV, Day 1) was 2 h, the Tmax (8 mg oral, Cohorts 2 and 3 NHV, pooled) was 2 h and the Tmax (10 mg oral, Cohort 3 NHV, Day 8) was 1 h. For the same compound, the Tmax (12 mg oral, Cohorts 4 and 5 MDD, Day 1 and Day 22) was 1.03 h, the Tmax (16 mg oral, Cohort 6 MDD, all subjects incl. 3 with emesis) was 1.03 h and the “mean clearance (CL/F), on average” value (range of means, 1 to 10 mg doses) was 85.22 to 104.7 L/h.
